Tests used:
[1] = human, in vivo; cited from earlier work
[2] = test system: HIV; conditions: drug used on its own, patients; cited from earlier work
[3] = molecular target: gp120/CD4 binding (UniProt P01730+P03375); assay: Test 1: inhibition of gp120/CD4 binding, recombinant proteins in an immunoassay format
[4] = test system: wild-type HIV-1(111a); format: cell-based; conditions: CEM cells, 4 days incubation at 37°C, syncytium formation
Method: The results shown in Table 1 for test 2 were obtained by testing cell cultures in accordance with the following procedure.
CEM cells were suspended at approximately 250,000 cells per milliliter of culture medium and infected with wild-type HIV-1(111a) at approximately 100 times the 50% cell culture infective dose (CCID50) per milliliter. Then 100µl of the infected cell suspensions were added to 200 µl microtiter plate wells containing 100 µl of an appropriate dilution of the test compounds. After 4 days incubation at 37°C the cell cultures were microscopically examined for syncytium formation.

| Molecule | SIDE EFFECTS [1] | REDUCTION IN VIRAL LOAD [2] | other results |
| --- | --- | --- | --- |
| Cc1cn([C@H]2C[C@H](N=[N+]=[N-])[C@@H](CO)O2)c(=O)[nH]c1=O [Zidovudine (AZT), Zidovudine] | myelosupression, myopathy, nausea, headache, anaemia | 50-90% |  |
| CC(C)c1nc(CN(C)C(=O)N[C@H](C(=O)N[C@@H](Cc2ccccc2)C[C@H](O)[C@H](Cc2ccccc2)NC(=O)OCc2cncs2)C(C)C)cs1 [Ritonavir] | diarrhoea nausea, vomiting, hepatitis, headache |  |  |
| Nc1nc(NC2CC2)c2ncn([C@H]3C=C[C@@H](CO)C3)c2n1 [Abacavir] |  | 50-90% |  |
| dodecapotassium acetate of p-bromopyrogallol P-F-phenyl tetramer [AC-1 (1151c)] |  |  | % inhibition of gp120/CD4 binding ([3]; Conc um 0.39): 48%; % inhibition of gp120/CD4 binding ([3]; Conc um 0.78): 55%; % inhibition of gp120/CD4 binding ([3]; Conc um 1.56): 62%; % inhibition of gp120/CD4 binding ([3]; Conc um 3.125): 70%; % inhibition of gp120/CD4 binding ([3]; Conc um 6.25): 82%; % inhibition of gp120/CD4 binding ([3]; Conc um 12.5): 86%; % inhibition of gp120/CD4 binding ([3]; Conc um 25): 91%; % inhibition of gp120/CD4 binding ([3]; Conc um 50): 93%; % inhibition of gp120/CD4 binding ([3]; Conc um 100): 96%; EC50 ([3]; read-out: Test 1 EC50, concentration which reduces gp120 interaction with CD4 by 50%): 500 to 1000 nM; Test 2 EC50 [4]: 4 µg/mL |
| Nc1ccn([C@@H]2CS[C@H](CO)O2)c(=O)n1 [Lamivudine (3TC), Lamivudine] | gastrointestinal disturbances, hair loss, myelosuppression, exacerbation of peripheral neuropathy |  |  |
| Cc1c(O)cccc1C(=O)N[C@@H](CSc1ccccc1)[C@H](O)CN1C[C@H]2CCCC[C@H]2C[C@H]1C(=O)NC(C)(C)C [Nelfinavir (Viracept), Nelfinavir] | diarrohea, nausea & vomiting |  |  |
| O=c1[nH]cnc2c1ncn2[C@H]1CC[C@@H](CO)O1 [Didanosine (ddl), Didanosine] |  | 50-90% |  |
| CC(C)(C)NC(=O)[C@@H]1C[C@@H]2CCCC[C@@H]2CN1C[C@@H](O)[C@H](Cc1ccccc1)NC(=O)[C@H](CC(N)=O)NC(=O)c1ccc2ccccc2n1 [Saquinavir] | loose stools, nausea, headache |  |  |
| O=C1Nc2ccc(Cl)cc2[C@@](C#CC2CC2)(C(F)(F)F)O1 [Efavirenz] |  | 50-90% |  |
| Nc1ccn([C@H]2CC[C@@H](CO)O2)c(=O)n1 [Zalcitabine (ddc), Zalcitabine] |  | 50-90% |  |
| Cc1cn([C@H]2C=C[C@@H](CO)O2)c(=O)[nH]c1=O [Stavudine (d4T), Stavudine] |  | 50-90% |  |
| CC(C)Nc1cccnc1N1CCN(C(=O)c2cc3cc(NS(C)(=O)=O)ccc3[nH]2)CC1 [Delaviridine] |  | 50-90% |  |
| Cc1ccnc2c1NC(=O)c1cccnc1N2C1CC1 [Nevirapine] |  | 50-90% |  |

From EP1367044B1, “Calixarene-derivatives having anti-viral activity” (Aids Care Pharma Limited, priority 2002, dated 2003)
